The text below walks through data of patent US11780893B2, “Kv1.3 blockers” (Zealand Pharma A/S, priority 2019, dated 2023).

In one assay the target is Rat whole blood (Rattus norvegicus, UniProt P15384).
Assay [1] deals with T1, human Kv1.3 voltage-gated K+ channel (Homo sapiens, UniProt P22001).
T1 construct: host or cells: CHO-DUKX
The experiment in a line: cell-based. Conditions: inhibition of thallium flux, CHO-DUKX cells with human Kv1.3; read-out: IC50.

The next assay concerns the target T2, Kv1.6 (Homo sapiens, UniProt P17658).
T2 construct: expressed in transfected cells; host or cells: Chinese Hamster Ovary (CHO)
The experiment in a line: cell-based. Conditions: for IC50: CHO cells, whole-cell patch clamp, read-out: Potency IC50 (nM) Kv1.6; for Selectivity Kv1.6/Kv1.3: ratio IC50[Kv1.6]/IC50[Kv1.3]. For orientation: Patch clamp records ionic current or voltage across a cell membrane.

The target of a further assay is T3, Kv1.3 (Homo sapiens, UniProt P22001).
T3 construct: expressed in transfected cells; host or cells: Chinese Hamster Ovary (CHO)
T3 sequence (P22001 whole entry): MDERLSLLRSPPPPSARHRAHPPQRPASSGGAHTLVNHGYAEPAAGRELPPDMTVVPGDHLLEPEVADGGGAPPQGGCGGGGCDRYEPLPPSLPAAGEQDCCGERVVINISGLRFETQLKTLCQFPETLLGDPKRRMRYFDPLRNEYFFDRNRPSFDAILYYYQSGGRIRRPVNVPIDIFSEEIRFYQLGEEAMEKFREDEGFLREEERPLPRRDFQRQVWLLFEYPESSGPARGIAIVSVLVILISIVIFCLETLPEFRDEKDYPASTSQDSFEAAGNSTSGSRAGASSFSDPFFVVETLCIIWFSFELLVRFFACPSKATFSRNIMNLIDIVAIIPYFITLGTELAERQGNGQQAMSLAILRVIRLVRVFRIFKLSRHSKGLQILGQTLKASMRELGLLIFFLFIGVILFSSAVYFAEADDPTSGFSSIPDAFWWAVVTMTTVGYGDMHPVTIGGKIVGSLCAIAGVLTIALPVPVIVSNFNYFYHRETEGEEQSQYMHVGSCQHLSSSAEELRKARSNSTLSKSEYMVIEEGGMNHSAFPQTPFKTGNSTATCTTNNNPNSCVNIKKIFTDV
As to the kind of experiment: cell-based. The following applies: CHO cells, whole-cell patch clamp; read-out: Potency IC50 (nM) Kv1.3.

The next assay has as its target T4, Kv1.1 (Homo sapiens, UniProt Q09470).
T4 construct: expressed in transfected cells; host or cells: Chinese Hamster Ovary (CHO)
As to the kind of experiment: cell-based. Conditions: for IC50: CHO cells, whole-cell patch clamp, read-out: Potency IC50 (nM) Kv1.1; for Selectivity Kv1.1/Kv1.3: ratio IC50[Kv1.1]/IC50[Kv1.3].

The target in the next assay is T5, Kv1.2 (Homo sapiens, UniProt P16389).
T5 construct: expressed in transfected cells; host or cells: Chinese Hamster Ovary (CHO)
T5 sequence (P16389 whole entry): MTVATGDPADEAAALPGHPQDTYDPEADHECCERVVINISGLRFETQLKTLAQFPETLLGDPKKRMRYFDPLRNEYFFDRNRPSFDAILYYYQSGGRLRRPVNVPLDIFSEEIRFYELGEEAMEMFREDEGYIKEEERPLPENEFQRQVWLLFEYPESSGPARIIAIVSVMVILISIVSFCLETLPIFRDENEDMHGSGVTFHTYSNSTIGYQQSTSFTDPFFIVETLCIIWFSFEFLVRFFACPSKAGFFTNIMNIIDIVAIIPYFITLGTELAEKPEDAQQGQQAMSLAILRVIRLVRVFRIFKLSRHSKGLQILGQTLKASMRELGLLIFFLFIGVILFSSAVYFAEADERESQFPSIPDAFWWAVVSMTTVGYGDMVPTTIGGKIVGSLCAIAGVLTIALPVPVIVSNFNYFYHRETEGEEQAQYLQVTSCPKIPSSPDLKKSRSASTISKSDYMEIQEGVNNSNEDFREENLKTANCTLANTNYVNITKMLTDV
As to the kind of experiment: cell-based. Conditions: CHO cells, whole-cell patch clamp; read-out: Potency IC50 (nM) Kv1.2.

Each structure is given as a SMILES string. Bridge positions count the residues as written; N and C are the ends. Square brackets hold non-standard residues; d marks the D form. Peptide text beside a SMILES is read from it. Phe(4-NH2) = Nc1ccc(C[C@H](N)C(=O)O)cc1; Nle = CCCC[C@H](N)C(=O)O

T2 sequence (P17658 whole entry): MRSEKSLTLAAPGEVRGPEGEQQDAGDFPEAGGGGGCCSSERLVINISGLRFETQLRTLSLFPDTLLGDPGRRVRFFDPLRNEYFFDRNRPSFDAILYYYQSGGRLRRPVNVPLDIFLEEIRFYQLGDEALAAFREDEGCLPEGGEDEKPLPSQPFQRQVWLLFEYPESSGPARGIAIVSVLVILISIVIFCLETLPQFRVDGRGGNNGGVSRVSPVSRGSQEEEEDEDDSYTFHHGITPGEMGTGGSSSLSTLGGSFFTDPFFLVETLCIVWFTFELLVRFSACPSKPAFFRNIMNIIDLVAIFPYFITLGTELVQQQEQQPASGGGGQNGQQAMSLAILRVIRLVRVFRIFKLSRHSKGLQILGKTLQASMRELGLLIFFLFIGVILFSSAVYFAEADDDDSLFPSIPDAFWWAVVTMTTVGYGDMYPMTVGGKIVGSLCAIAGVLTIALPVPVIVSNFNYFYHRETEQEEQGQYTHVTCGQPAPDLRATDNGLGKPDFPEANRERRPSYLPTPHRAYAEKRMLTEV
T4 sequence (Q09470 whole entry): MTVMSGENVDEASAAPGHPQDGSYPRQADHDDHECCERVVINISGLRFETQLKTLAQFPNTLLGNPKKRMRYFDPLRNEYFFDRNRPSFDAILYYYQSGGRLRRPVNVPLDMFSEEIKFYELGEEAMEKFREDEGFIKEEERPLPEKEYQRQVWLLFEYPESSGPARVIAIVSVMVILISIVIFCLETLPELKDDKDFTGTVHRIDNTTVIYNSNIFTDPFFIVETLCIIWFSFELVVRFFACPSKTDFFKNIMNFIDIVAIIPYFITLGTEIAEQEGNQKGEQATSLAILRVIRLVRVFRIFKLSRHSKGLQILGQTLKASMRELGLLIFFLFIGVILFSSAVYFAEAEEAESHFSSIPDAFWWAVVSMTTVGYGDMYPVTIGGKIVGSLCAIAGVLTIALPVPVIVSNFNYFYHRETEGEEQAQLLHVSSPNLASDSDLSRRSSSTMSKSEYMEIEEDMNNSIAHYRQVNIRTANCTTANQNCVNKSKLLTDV
Sequence of Rat whole blood (P15384 whole entry): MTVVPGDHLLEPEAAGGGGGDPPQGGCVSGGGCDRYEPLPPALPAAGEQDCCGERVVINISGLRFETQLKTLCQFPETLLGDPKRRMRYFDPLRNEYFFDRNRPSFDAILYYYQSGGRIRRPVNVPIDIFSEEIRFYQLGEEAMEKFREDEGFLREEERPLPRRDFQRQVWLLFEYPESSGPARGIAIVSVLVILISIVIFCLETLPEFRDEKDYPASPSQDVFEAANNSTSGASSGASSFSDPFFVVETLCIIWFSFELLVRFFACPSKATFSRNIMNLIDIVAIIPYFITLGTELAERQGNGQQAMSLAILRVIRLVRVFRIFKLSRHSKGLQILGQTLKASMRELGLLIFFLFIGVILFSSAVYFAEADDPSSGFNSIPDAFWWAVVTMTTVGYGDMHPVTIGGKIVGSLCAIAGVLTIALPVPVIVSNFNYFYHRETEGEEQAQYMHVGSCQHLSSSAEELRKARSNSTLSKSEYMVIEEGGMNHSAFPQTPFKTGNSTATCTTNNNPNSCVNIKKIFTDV
T1 sequence (P22001 whole entry): as the sequence (P22001 whole entry) above

As for `CCCC[C@@H]1NC(=O)[C@@H]2CSSC[C@H](NC(=O)[C@H](CCCNC(=N)N)NC(=O)[C@H](CCCC)NC(=O)[C@H](CC(=O)O)NC(=O)[C@H](CCCC)NC(=O)[C@@H](N)CC(N)=O)C(=O)N[C@@H](CO)C(=O)N[C@@H](Cc3c[nH]cn3)C(=O)N[C@@H](CO)C(=O)N[C@@H](C(C)C)C(=O)N[C@@H](CCC(=O)O)C(=O)N[C@H]3CSSC[C@H](NC(=O)[C@H](CCCCN)NC(=O)[C@H](CCCCN)NC(=O)[C@H](CC(N)=O)NC1=O)C(=O)N[C@@H](CCCCN)C(=O)N[C@H](C(=O)N[C@@H](Cc1ccc(O)cc1)C(=O)N1CCC[C@H]1C(=O)N[C@@H](CCCNC(=N)N)C(N)=O)CSSC[C@H](NC(=O)[C@H](CCCCN)NC(=O)[C@H](CCC(N)=O)NC(=O)[C@H](CCCCN)NC3=O)C(=O)N[C@@H](CC(C)C)C(=O)N[C@@H](CCCCN)C(=O)N[C@@H](C)C(=O)N[C@@H]([C@@H](C)CC)C(=O)NCC(=O)N[C@@H](CO)C(=O)N[C@@H]([C@@H](C)CC)C(=O)N[C@@H](Cc1ccccc1)C(=O)NCC(=O)N[C@@H](CCCCN)C(=O)N2` [Compound 47] (H-N[Nle]D[Nle]RCSHSVECKQKCLKAIGSIFGKC[Nle]NKKCKCYPR-NH2; disulfide 6-27, 12-32, 16-34), the IC50 on Rat whole blood was at most 1 nM; in assay [1] it was 0.12 nM; on Kv1.6, 609 nM; at Kv1.3, 0.54 nM; on Kv1.1 it was over 3000 nM; at Kv1.2, 772 nM. Further, the “Selectivity Kv1.1/Kv1.3” value at Kv1.1 is recorded as over 5600.

As for `CCCC[C@H](NC(=O)[C@H](CC(=O)O)NC(=O)[C@H](CCCC)NC(=O)[C@@H](N)CO)C(=O)N[C@@H](CCCNC(=N)N)C(=O)N[C@H]1CSSC[C@@H]2NC(=O)[C@H](CCCCN)NC(=O)CNC(=O)[C@H](Cc3ccccc3)NC(=O)[C@H]([C@@H](C)CC)NC(=O)[C@H](CO)NC(=O)CNC(=O)[C@H]([C@@H](C)CC)NC(=O)[C@H](C)NC(=O)[C@H](CCCCN)NC(=O)[C@H](CC(C)C)NC(=O)[C@@H]3CSSC[C@@H](C(=O)N[C@@H](Cc4ccc(N)cc4)C(=O)N4CCC[C@H]4C(=O)N[C@@H](CCCNC(=N)N)C(N)=O)NC(=O)[C@H](CCCCN)NC(=O)[C@H](CSSC[C@H](NC(=O)[C@H](CCC(=O)O)NC(=O)[C@H](C(C)C)NC(=O)[C@H](CO)NC(=O)[C@H](C)NC(=O)[C@H](CO)NC1=O)C(=O)N[C@@H](CCCCN)C(=O)N[C@@H](CCC(N)=O)C(=O)N[C@@H](CCCCN)C(=O)N3)NC(=O)[C@H](CCCCN)NC(=O)[C@H](CCCCN)NC(=O)[C@H](CC(N)=O)NC(=O)[C@H](CCSC)NC2=O` [Compound 70] (H-S[Nle]D[Nle]RCSASVECKQKCLKAIGSIFGKCMNKKCKC[Phe(4-NH2)]PR-NH2; disulfide 6-27, 12-32, 16-34), the IC50 is at most 1 nM at Rat whole blood; 0.13 nM in assay [1]; over 3000 nM at Kv1.6; 0.25 nM at Kv1.3; over 3000 nM at Kv1.1; 423 nM on Kv1.2. Further, the “Selectivity Kv1.6/Kv1.3” value at Kv1.6 is reported as over 12200. The “Selectivity Kv1.1/Kv1.3” value on Kv1.1 was over 12200.

On to `CCCC[C@@H]1NC(=O)[C@@H]2CSSC[C@H](NC(=O)[C@H](CCCNC(=N)N)NC(=O)[C@H](CCCC)NC(=O)[C@H](CC(=O)O)NC(=O)[C@H](CCCC)NC(=O)[C@@H](N)CC(N)=O)C(=O)N[C@@H](CO)C(=O)N[C@@H](C)C(=O)N[C@@H](CO)C(=O)N[C@@H](C(C)C)C(=O)N[C@@H](CCC(=O)O)C(=O)N[C@H]3CSSC[C@H](NC(=O)[C@H](CCCCN)NC(=O)[C@H](CCCCN)NC(=O)[C@H](CC(N)=O)NC1=O)C(=O)N[C@@H](CCCCN)C(=O)N[C@H](C(=O)N[C@@H](Cc1ccc(O)cc1)C(=O)N1CCC[C@H]1C(=O)N[C@@H](CCCNC(=N)N)C(N)=O)CSSC[C@H](NC(=O)[C@H](CCCCN)NC(=O)[C@H](CCC(N)=O)NC(=O)[C@H](CCCCN)NC3=O)C(=O)N[C@@H](CC(C)C)C(=O)N[C@@H](CCCCN)C(=O)N[C@@H](C)C(=O)N[C@@H]([C@@H](C)CC)C(=O)NCC(=O)N[C@@H](CO)C(=O)N1CCC[C@H]1C(=O)N[C@@H](Cc1ccccc1)C(=O)NCC(=O)N[C@@H](CCCCN)C(=O)N2` [Compound 62] (H-N[Nle]D[Nle]RCSASVECKQKCLKAIGSPFGKC[Nle]NKKCKCYPR-NH2; disulfide 6-27, 12-32, 16-34), for which the IC50 on Rat whole blood is at most 1 nM; in assay [1], 0.13 nM; at Kv1.6, 2350 nM; on Kv1.3, 0.26 nM; on Kv1.1 it was over 3000 nM; at Kv1.2, 449 nM. Moreover, the “Selectivity Kv1.1/Kv1.3” value at Kv1.1 is over 11600.

For the molecule `CCCC[C@@H]1NC(=O)[C@@H]2CSSC[C@H](NC(=O)[C@H](CCCNC(=N)N)NC(=O)[C@H](CCCC)NC(=O)[C@H](CC(=O)O)NC(=O)[C@H](CCCC)NC(=O)[C@@H](N)CC(N)=O)C(=O)N[C@@H](CO)C(=O)N[C@@H](C)C(=O)N[C@@H](CO)C(=O)N[C@@H](CCCCN)C(=O)N[C@@H](CCC(=O)O)C(=O)N[C@H]3CSSC[C@H](NC(=O)[C@H](CCCCN)NC(=O)[C@H](CCCCN)NC(=O)[C@H](CC(N)=O)NC1=O)C(=O)N[C@@H](CCCCN)C(=O)N[C@H](C(=O)N[C@@H](Cc1ccc(O)cc1)C(=O)N1CCC[C@H]1C(=O)N[C@@H](CCCNC(=N)N)C(N)=O)CSSC[C@H](NC(=O)[C@H](CCCCN)NC(=O)[C@H](CCC(N)=O)NC(=O)[C@H](CCCCN)NC3=O)C(=O)N[C@@H](CC(C)C)C(=O)N[C@@H](CCCCN)C(=O)N[C@@H](C)C(=O)N[C@@H]([C@@H](C)CC)C(=O)NCC(=O)N[C@@H](CO)C(=O)N[C@@H]([C@@H](C)CC)C(=O)N[C@@H](Cc1ccccc1)C(=O)NCC(=O)N[C@@H](CCCCN)C(=O)N2` [Compound 63] (H-N[Nle]D[Nle]RCSASKECKQKCLKAIGSIFGKC[Nle]NKKCKCYPR-NH2; disulfide 6-27, 12-32, 16-34), the IC50 on Rat whole blood was at most 1 nM; in assay [1], 0.13 nM; at Kv1.6 it was 1230 nM; on Kv1.3, 0.31 nM; at Kv1.1, over 3000 nM; on Kv1.2 it was 184 nM. For the same molecule, the “Selectivity Kv1.1/Kv1.3” value on Kv1.1 is on record as over 9600.

Consider `CCCC[C@H](NC(=O)[C@@H]1CCCN1)C(=O)N[C@@H](CCC(=O)O)C(=O)N[C@@H](CCCC)C(=O)N[C@@H](CCCNC(=N)N)C(=O)N[C@H]1CSSC[C@@H]2NC(=O)[C@H](CCCCN)NC(=O)CNC(=O)[C@H](Cc3ccccc3)NC(=O)[C@H]([C@@H](C)CC)NC(=O)[C@H](CO)NC(=O)CNC(=O)[C@H]([C@@H](C)CC)NC(=O)[C@H](C)NC(=O)[C@H](C)NC(=O)[C@H](CC(C)C)NC(=O)[C@@H]3CSSC[C@@H](C(=O)N[C@@H](Cc4ccc(O)cc4)C(=O)N4CCC[C@H]4C(=O)N[C@@H](CCCNC(=N)N)C(N)=O)NC(=O)[C@H](CCCCN)NC(=O)[C@H](CSSC[C@H](NC(=O)[C@H](CCC(=O)O)NC(=O)[C@H](C(C)C)NC(=O)[C@H](CO)NC(=O)[C@H](C)NC(=O)[C@H](CO)NC1=O)C(=O)N[C@@H](CCCCN)C(=O)N[C@@H](CCC(N)=O)C(=O)N[C@@H](CCCCN)C(=O)N3)NC(=O)[C@H](CCCCN)NC(=O)[C@H](CCCCN)NC(=O)[C@H](CC(N)=O)NC(=O)[C@H](CCCC)NC2=O` [Compound 98] (H-P[Nle]E[Nle]RCSASVECKQKCLAAIGSIFGKC[Nle]NKKCKCYPR-NH2; disulfide 6-27, 12-32, 16-34), for which the IC50 is at most 1 nM against Rat whole blood; 0.11 nM in assay [1]; over 3000 nM at Kv1.6; 0.18 nM on Kv1.3; over 3000 nM at Kv1.1; 311 nM on Kv1.2. Further, the “Selectivity Kv1.6/Kv1.3” value at Kv1.6 is on record as over 16200. Further, the “Selectivity Kv1.1/Kv1.3” value at Kv1.1 was over 16200.

In general, IC50 refers to the concentration that gives 50% inhibition.
